From US20120100361A1, “ANTISEPTIC COMPOSITION FOR ENGINEERING WOOD PRODUCTION, AND ENGINEERING WOOD” (SDS BIOTECH K.K., priority 2009, published 2012)

Assays:
[1] = Test for miscibility with a phenol resin glue; format: physicochemical; set-up: key to Phenol resin status after 60 minutes: ∘: No change; x: Obvious increase in the viscosity was seen and it seems impossible to apply the composition onto the veneer sheet; settings: 10% (w/w) solution added to phenol resin glue Deernol D-117 kneaded product; viscosity change visually observed for 60 minutes
Protocol: The following compounds, which are known to have wood preservative activity, are dissolved in methyl ethylene triglycol to reach a concentration of 10% (w/w) to thereby obtain a solution of each of the compounds.
1000 g of phenol resin-based glue Deernol D-117 (manufactured by Oshika Corporation), 70 g of wheat flour and 100 g of calcium carbonate were mixed and well kneaded. Each of the solutions of Example 1 and Comparative Example 1 to 25 was added to 17 g of the kneaded product and mixed well together. The viscosity change of the glue was visually observed for 60 minutes. […] Although a number of documents listed as the prior art documents and the like teach that quaternary ammonium compounds can be applied to the glue line treatment, it is clear that those compounds have a problem for practical use (Comparative Examples 3 and 4). On the other hand, it was confirmed that the other compounds including that of Example has no problem from the viewpoint of compatibility.

[2] = system: Fomitopsis palustris; experiment: Test for antiseptic effects of preservative plywood (JIS K1571:2004); format: cell-based; settings: plywood, urea melamine resin, Fomitopsis palustris
Protocol: (§1) 1000 g of urea melamine resin (PWP-60, manufactured by Oshika Corporation) was added to 180 g of wheat flour and fully kneaded to thereby obtain a kneaded product. 8 g of ammonium chloride was added as a hardening agent to the kneaded product, and a solution of each of the compounds of Example 1 and Comparative Example 1, 2 and 5 to 25 was further added thereto so that the final concentrations of the compound in the wood become 150, 100, 50 and 25 g/m^3 and kneaded. 18 g of the above kneaded product was applied onto each of the bonding plane of the three red lauan veneer sheets having an area of 30 x 30 cm and thickness of 0.85 mm/2.4 mm/0.85 mm. After bonding the three sheets to each other, the sheets were subjected to cold pressing at room temperature for 20 minutes and the thermal pressure of 120° C. (10 kgf/cm^2) was applied to the sheets for two minutes to obtain the target plywood. Each of the prepared plywood was processed into the size of 20×20×4.1 mm to serve as a test sample.
(§2) The samples of the plywood and LVL prepared in Preparation Examples 2 and 3 were evaluated by the test for antiseptic effects for the drug pressure treatment according to JIS K1571:2004. The weather resistance operation and the test method for the antiseptic effect were performed according to the above test method.

[3] = system: Trametes versicolor; experiment: as above; format: cell-based; settings: plywood, urea melamine resin, Trametes versicolor
Protocol: as §1, §2

[4] = system: Fomitopsis palustris; experiment: Test for antiseptic effects of preservative LVL (JIS K1571:2004); format: cell-based; settings: phenol resin
Protocol: (§3) 1000 g of the phenol resin-based glue Deernol D-117 (manufactured by Oshika Corporation), 70 g of wheat flour and 100 g of calcium carbonate were mixed and well kneaded. A solution of each of the compounds of Example 1 and Comparative Example 1, 2 and 5 to 25 was added to the kneaded product so that the final concentrations of the compound in the wood become 150, 100, 50 and 25 g/m^3 and further kneaded. 18 g of the above kneaded product was applied onto each of the surface of glue line of the three Radiata pine veneer sheets having an area of 30 x 30 cm and thickness of 3 mm. After bonding the three sheets to each other, the sheets were subjected to cold pressing at room temperature for 20 minutes and the thermal pressure of 140° C. (10 kgf/cm^2) was applied to the sheets for two minutes to obtain the target LVL. Each of the prepared LVL was processed into the size of 20×20×9 mm to serve as a test sample.
as §2

[5] = system: Trametes versicolor; experiment: as above; format: cell-based; settings: phenol resin
Protocol: as §3, §2

[6] = system: fungus cellar soil-bed; experiment: Fungus cellar soil-bed test of preservative plywood (JIS K1571:2004); settings: plywood, six months, 25° C., grade 0 sound condition to 5 out of shape due to the decay
Protocol: as §1
The preservative plywood was prepared in the same manner in Preparation Example 2. Each of the prepared plywood was processed into the size of 8.9 x 8.9×100 mm to serve as a test sample.
(§4) The samples of the plywood and LVL prepared in Preparation Examples 4 and 5 were evaluated by the fungus cellar soil-bed test according to JIS K1571:2004. The weather resistance operation and the test method for the antiseptic effect were performed according to the above test method. The test was carried out for six months setting the test temperature to 25° C. (because the grade average of the decay damage of the non-treated test samples exceeded 2.5 in six months). […] The effect in the glue line treatment was actually investigated with respect to a number of existing antiseptics, and it was confirmed that only epoxyconazole is suitable for the glue line treatment at a low concentration.

[7] = system: fungus cellar soil-bed; experiment: Fungus cellar soil-bed test of preservative LVL (JIS K1571:2004); settings: 25° C., grade 0 sound condition to 5 out of shape due to the decay
Protocol: as §3
The preservative LVL was prepared in the same manner in Preparation Example 3. Each of the prepared LVL was processed into the size of 9×9×100 mm to serve as a test sample.
as §4

[8] = treated amount 25 g/m^3, six months
[9] = treated amount 50 g/m^3, six months
[10] = treated amount 100 g/m^3, six months
[11] = treated amount 150 g/m^3, six months

SMILES: CCCCCCCCn1sccc1=O [Comparative Example 24, N-octylisothiazolin-3-one]
- Phenol resin status after 60 minutes [1]: ∘
- average rate of decrease in weight ([2]; treated amount 25 g/m^3): X (The average rate of decrease in weight was 3% or more.)
- average rate of decrease in weight ([2]; treated amount 50 g/m^3): X (The average rate of decrease in weight was 3% or more.)
- average rate of decrease in weight ([2]; treated amount 100 g/m^3): X (The average rate of decrease in weight was 3% or more.)
- average rate of decrease in weight ([2]; treated amount 150 g/m^3): X (The average rate of decrease in weight was 3% or more.)
- average rate of decrease in weight ([3]; treated amount 25 g/m^3): X (The average rate of decrease in weight was 3% or more.)
- average rate of decrease in weight ([3]; treated amount 50 g/m^3): X (The average rate of decrease in weight was 3% or more.)
- average rate of decrease in weight ([3]; treated amount 100 g/m^3): X (The average rate of decrease in weight was 3% or more.)
- average rate of decrease in weight ([3]; treated amount 150 g/m^3): X (The average rate of decrease in weight was 3% or more.)
- average rate of decrease in weight ([4]; treated amount 25 g/m^3): X (The average rate of decrease in weight was 3% or more.)
- average rate of decrease in weight ([4]; treated amount 50 g/m^3): X (The average rate of decrease in weight was 3% or more.)
- average rate of decrease in weight ([4]; treated amount 100 g/m^3): X (The average rate of decrease in weight was 3% or more.)
- average rate of decrease in weight ([4]; treated amount 150 g/m^3): X (The average rate of decrease in weight was 3% or more.)
- average rate of decrease in weight ([5]; treated amount 25 g/m^3): X (The average rate of decrease in weight was 3% or more.)
- average rate of decrease in weight ([5]; treated amount 50 g/m^3): X (The average rate of decrease in weight was 3% or more.)
- average rate of decrease in weight ([5]; treated amount 100 g/m^3): X (The average rate of decrease in weight was 3% or more.)
- average rate of decrease in weight ([5]; treated amount 150 g/m^3): X (The average rate of decrease in weight was 3% or more.)
- Grade average of the decay damage of five test samples ([6]; treated amount 25 g/m^3): 2.8
- Grade average of the decay damage of five test samples ([6]; treated amount 50 g/m^3): 2.8
- Grade average of the decay damage of five test samples ([6]; treated amount 100 g/m^3): 2.8
- Grade average of the decay damage of five test samples ([6]; treated amount 150 g/m^3): 2.8
- Grade average of the decay damage of five test samples [7, 8]: 3.0
- Grade average of the decay damage of five test samples [7, 9]: 3.4
- Grade average of the decay damage of five test samples [7, 10]: 3.0
- Grade average of the decay damage of five test samples [7, 11]: 3.2

SMILES: CCCCNC(=O)OCC#CI [Comparative Example 23, 3-iode-2-propynyl-n-butylcarbamate]
- Phenol resin status after 60 minutes [1]: ∘
- average rate of decrease in weight ([2]; treated amount 25 g/m^3): X (The average rate of decrease in weight was 3% or more.)
- average rate of decrease in weight ([2]; treated amount 50 g/m^3): X (The average rate of decrease in weight was 3% or more.)
- average rate of decrease in weight ([2]; treated amount 100 g/m^3): X (The average rate of decrease in weight was 3% or more.)
- average rate of decrease in weight ([2]; treated amount 150 g/m^3): X (The average rate of decrease in weight was 3% or more.)
- average rate of decrease in weight ([3]; treated amount 25 g/m^3): X (The average rate of decrease in weight was 3% or more.)
- average rate of decrease in weight ([3]; treated amount 50 g/m^3): X (The average rate of decrease in weight was 3% or more.)
- average rate of decrease in weight ([3]; treated amount 100 g/m^3): X (The average rate of decrease in weight was 3% or more.)
- average rate of decrease in weight ([3]; treated amount 150 g/m^3): X (The average rate of decrease in weight was 3% or more.)
- average rate of decrease in weight ([4]; treated amount 25 g/m^3): X (The average rate of decrease in weight was 3% or more.)
- average rate of decrease in weight ([4]; treated amount 50 g/m^3): X (The average rate of decrease in weight was 3% or more.)
- average rate of decrease in weight ([4]; treated amount 100 g/m^3): X (The average rate of decrease in weight was 3% or more.)
- average rate of decrease in weight ([4]; treated amount 150 g/m^3): X (The average rate of decrease in weight was 3% or more.)
- average rate of decrease in weight ([5]; treated amount 25 g/m^3): X (The average rate of decrease in weight was 3% or more.)
- average rate of decrease in weight ([5]; treated amount 50 g/m^3): X (The average rate of decrease in weight was 3% or more.)
- average rate of decrease in weight ([5]; treated amount 100 g/m^3): X (The average rate of decrease in weight was 3% or more.)
- average rate of decrease in weight ([5]; treated amount 150 g/m^3): X (The average rate of decrease in weight was 3% or more.)
- Grade average of the decay damage of five test samples ([6]; treated amount 25 g/m^3): 2.8
- Grade average of the decay damage of five test samples ([6]; treated amount 50 g/m^3): 2.8
- Grade average of the decay damage of five test samples ([6]; treated amount 100 g/m^3): 3.2
- Grade average of the decay damage of five test samples ([6]; treated amount 150 g/m^3): 2.8
- Grade average of the decay damage of five test samples [7, 8]: 3.0
- Grade average of the decay damage of five test samples [7, 9]: 3.4
- Grade average of the decay damage of five test samples [7, 10]: 3.2
- Grade average of the decay damage of five test samples [7, 11]: 2.6
